Patent US12371472B2, “Multimeric IL-15 soluble fusion molecules and methods of making and using same” (Altor BioScience, LLC., priority 2010, dated 2025)
Read-outs that look alike come from different tables or passages of the source.

Key:
NK cells and CD8 T-cells = test: Immunostimulatory activity in C57BL/6 mice (NK cells, CD8 T cells, WBC, spleen weight); format: in vivo
Experimental: Changes in the percentage of peripheral blood mononuclear cells (PBMC) CD8^+ and NKp46^+ cells were assessed flow cytometry as shown in FIG. 48B. PBMCs were also used to assess NK cell activity based on lysis of NK-sensitive Yac-1 target cells in a calcein release assay as shown in FIG. 48C.
On study day 4, the percentage of PBMC CD8^+ and NKp46^+ cells were assessed by flow cytometry (FIG. 49A). Nude mice were treated i.v. with IL15N72D/IL15Rα-Fc (0.2 mg/kg) or T2M2 (2 mg/kg) of study day 1. On day 4 and 7 post treatment, the percentage of PBMC NKp46^+ cells was assessed by flow cytometry (FIG. 49B). […]
Mice were i.v. injected on day 1 and 4 with the fusion proteins at an amount equivalent to a 2.5 μg dose of IL-15. On day 8, blood cells and splenocytes were collected, stained for CD8 T-cells and NK cells, and analyzed by flow cytometry. […]
C57BL/6 mice (male, 6 wks of age, Harlan, Indianapolis, IN) were injected intravenously with a single dose of IL-15N72D:IL-15RαSu/Fc fusion complex (Alt-803) at 1 mg/kg or human IL-15 wt at 0.28 mg/kg (molar equivalent dose), respectively, or PBS as a negative control. […] The stained cells were analyzed on a FACScan flow cytometer (BD Bioscience, San Jose, CA). […]

murine EG7-OVA lymphoma = test: EG7-OVA lymphoma primary subcutaneous tumor growth in C57BL/6 mice (Example 27); format: in vivo; settings: ALT-803 0.415 or 0.83 mg/kg, rhIL-15 0.06 mg/kg, four i.v. injections
Experimental: To evaluate the effect of ALT-803 when administered via intravenous (i.v.) injection in multi-dose regimen on primary subcutaneous tumor growth of murine EG7-OVA lymphoma in C57BL/6 mice the following studies were carried out. Four treatment groups, ALT-803 (0.415 and 0.83 mg/kg), recombinant human interleukine-15 (rhIL-15, 0.06 mg/kg) and PBS (control), were examined in the study (Table 1). Female C57BL/6 mice (8-10 weeks old) were injected subcutaneously (s.c.) with EG7-OVA (1×10^6 cells in 100 μl PBS) on study day (SD) 0. PBS (n=5), rhIL-15 (n=5) or ALT-803 (n=5) were administered i.v. on SD 1, 4, 8, and 11 post EG7-OVA tumor cell injection. Tumors (width and length) were measured over the course of study. Tumor volume was the primary end point of the study.
Female C57BL/6 mice were injected s.c. with EG7-OVA (1×10^6 cells/mouse) on study day 0. […] During the study, mouse body weight and tumor width and length were measured and recorded.
The length (mm) and width (mm) of the tumors were measured and recorded. […]
Data were analyzed by ANOVA using GraphPad Prism Version 4.03. […] Tumor growth inhibition (TGI) was calculated using the following equation: TGI (%)=(Vcontrol−Vtreated)/Vcontrol×100, where Vcontrol is the mean tumor volume of mice from the PBS or rhIL-15 treatment control, and Vtreated is the mean tumor volume of mice receiving test article treatment.

[1] = test system: human p53+ HLA-A2+ A375 melanoma cell line; settings: vs PBS; for effect on s.c. A375 tumor xenografts: Example 17, i.v., equivalent molar doses
Experimental: A375 human melanoma tumor cells (1×10^6) were injected s.c. into nude mice (5-6/group). […] The mice were treated three times a week for three weeks starting on study day 11 (FIG. 50A). A375-tumor bearing nude mice were also treated i.v. with 4 mg/kg T2M as in FIG. 50A (FIG. 50B). A375 tumor bearing nude mice were i.v. with equivalent molar doses of IL-15 (0.2 mg/kg), T2M2 (2 mg/kg) or PBS (FIG. 50C). Tumors were measured every other day and tumor volumes (mean±SEM) were plotted.
To determine the therapeutic effects of the T2 protein, we examined antitumor activity in a primary tumor growth model with the human p53+ HLA-A2+A375 melanoma cell line in nude mice. Tumor cells were injected subcutaneously into nude mice and tumors were allowed to grow to 100 mm 3 before treatment began. […] The mice were treated every other day for one week (3 injections) followed by a 9 day rest period and then every other day for an additional week (3 injections). During the study, tumor growth was measured and the tumor volumes were plotted (FIG. 27).
The antitumor activity of these complexes was further examined in the subcutaneous A375 xenograft model in nude mice.

IL-15Rα = settings: cited from earlier work
5T33P myeloma cells = test: 5T33P murine myeloma model; settings: single i.v. ALT-803 0.2 mg/kg or molar equivalent IL-15, well-established tumors, four days after treatment
Experimental: BM cells were collected 4 days after study drug treatments. […] The plotted values represent the mean±SE; P values are presented. […] Female C57BL/6NHsd mice (n=5/group) were injected i.v. with murine 5T33P myeloma cells (1×10^7 cells/mouse) on day 0. […] Control mice were treated with PBS on day 4. Survival (or morbidity due to hind leg paralysis) was monitored as a study endpoint. […] Five treatment-naïve mice were also administered 5T33P cells (1×10^7) on day 93 as a control for tumor development.
Tumor-bearing mice were monitored daily for hind leg paralysis, signs of overt disease progression and mortality.
Levels of BM myeloma cells and hind leg paralysis or survival were assessed as study endpoints.
Control mice received PBS (0.2 mL).

32Dβ cells [2] = settings: as disclosed in WO2008143794; cited from earlier work
32Dβ cells [3] = test: 32Dβ cell proliferation assay (WST-1), IL-15 biological activity; format: cell-based; settings: hIL-15 wild-type domain, 48 h; read-out: half-maximal stimulation (EC50)
Experimental: The biological activity of the IL-15 domain of the T2 molecules was further characterized in proliferation assays using the cytokine-dependent 32Dβ cell line. […] Cell proliferation reagent WST-1 (Roche Applied Science) was added during the last 4 h of cell growth according to the manufacturer's procedures. Conversion of WST-1 to the colored formazan dye by metabolically active cells was determined through absorbance measurements at 440 nm.
Cell proliferation assays—Cell proliferation was measured as previously described (25). Briefly, 32Dβ cells (1×10^5 cells/well) were incubated with increasing concentrations of scTCR/hIL-15 or scTCR/hIL-15 muteins in the presence or absence of an equal molar concentration of scTCR/hIL-15RαSu for 48 h at 37° C. Cell proliferation reagent WST-1 (Roche Applied Science, Indianapolis, IN) was added during the last 4 h of cell growth according to the manufacturer's procedures. Conversion of WST-1 to the colored formazan dye by metabolically active cells was determined through absorbance measurements at 440 nm. The EC50 was determined with the dose-response curve generated from the experimental data by nonlinear regression variable slope curve-fitting with Prizm4 software (GraphPad Software, La Jolla, CA). […]

IL-15Rβγc receptors = target: T1, IL-15Rβγc receptors (UniProt P14784+P34902); test: IL-15Rβγc receptor binding of IL-15 variants and fusion complexes on 32Dβ cells (flow cytometry); settings: 320 nM fusion protein complex
T1 construct: expressed in transfected cells; host or cells: 32Dβ cells
T1 sequence (P14784 27-551): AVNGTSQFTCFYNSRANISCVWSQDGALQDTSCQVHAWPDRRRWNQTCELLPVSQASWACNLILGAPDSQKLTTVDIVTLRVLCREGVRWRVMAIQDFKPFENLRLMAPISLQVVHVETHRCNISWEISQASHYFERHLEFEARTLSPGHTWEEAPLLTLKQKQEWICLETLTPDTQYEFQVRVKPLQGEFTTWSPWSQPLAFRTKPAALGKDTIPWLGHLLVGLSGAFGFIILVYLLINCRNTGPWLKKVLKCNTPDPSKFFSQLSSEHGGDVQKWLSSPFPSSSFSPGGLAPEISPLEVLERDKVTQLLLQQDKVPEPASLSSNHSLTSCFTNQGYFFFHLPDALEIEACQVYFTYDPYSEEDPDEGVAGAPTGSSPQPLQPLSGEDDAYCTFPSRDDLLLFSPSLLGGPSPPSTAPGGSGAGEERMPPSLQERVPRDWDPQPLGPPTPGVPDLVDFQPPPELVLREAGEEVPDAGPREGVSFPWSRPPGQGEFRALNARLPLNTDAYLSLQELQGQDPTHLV
T1 sequence (P34902 23-369): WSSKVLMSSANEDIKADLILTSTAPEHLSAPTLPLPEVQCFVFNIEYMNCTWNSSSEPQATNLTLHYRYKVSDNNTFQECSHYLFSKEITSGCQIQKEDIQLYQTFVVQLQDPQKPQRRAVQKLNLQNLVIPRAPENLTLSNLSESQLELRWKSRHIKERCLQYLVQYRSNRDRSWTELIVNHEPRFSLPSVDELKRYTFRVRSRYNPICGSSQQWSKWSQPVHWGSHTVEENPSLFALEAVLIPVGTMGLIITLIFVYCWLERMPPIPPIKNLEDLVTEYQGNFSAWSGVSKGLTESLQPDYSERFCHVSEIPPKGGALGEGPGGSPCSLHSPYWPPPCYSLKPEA
Experimental: (§1) The fusion protein complexes comprising IL-15 variants as described in the table immediately above were characterized for their ability to bind the TCR-specific antigen, p53 (aa264-272)/HLA-A2.1. To generate cells presenting p53 (aa264-272)/HLA-A2.1, HLA-A2.1-positive T2 cells (2×10^6/mL) were loaded with 20 μM p53 (aa264-272) peptide at 37° C. in the presence of 1×PLE (Altor Bioscience) for 2-3 hrs. T2 cells that were not incubated with peptide and 321313 cells expressing IL-2/15Rβγc serve as controls. […] These complexes were generated by incubating 160 nM of purified c264scTCRhuIL15 fusion protein and 160 nM of purified c264scTCRhuIL15Rα Sushi fusion protein at 4 C for 3 hours. Following staining, cells were washed once with washing buffer (PBS containing 0.5% BSA and 0.05% sodium azide) and stained with 0.5 μg of biotinylated mouse monoclonal anti-human TCR Cβ antibody (BF1) in 100 μL of washing buffer for 30 min at 4 C. Cells were washed once and stained with 0.5 μg of R-Phycoerythrin conjugated streptavidin in 100 μL of washing buffer for 30 min at 4 C. Cells were washed and resuspended for analysis by flow cytometry.
The binding of the proteins was in turn detected with biotinylated (BF1) 8A3.31 mAb for 15 min and SA-PE (5 μg/ml each) for 15 min. The stained cells were analyzed by flow cytometry as described above.

p53 (aa264-272)/HLA-A2.1 = test: Flow cytometry staining of p53 (aa264-272) peptide-loaded HLA-A2-positive T2 cells; format: binding, human; settings: 320 nM dimeric complex; vs c264scTCR/huIL15+c264scTCR/huIL15RαSushi complex
Experimental: as §1, with “Cells were washed and resuspended for analysis by flow cytometry.” left out
For the OT1scTCR fusion protein complexes, murine lymphoma EL4 cells were pulsed with OVA peptide at 100 μg/ml and PLE at 37° C. for 6 h. […] The samples were washed two times and analyzed on a FACScan flow cytometer using CellQuest software (BD Biosciences, San Jose, CA). […]

TNF-α = TNF-α (Homo sapiens, UniProt P01375); settings: cited from earlier work
TNF-α, sequence (P01375 77-233 limits assumed): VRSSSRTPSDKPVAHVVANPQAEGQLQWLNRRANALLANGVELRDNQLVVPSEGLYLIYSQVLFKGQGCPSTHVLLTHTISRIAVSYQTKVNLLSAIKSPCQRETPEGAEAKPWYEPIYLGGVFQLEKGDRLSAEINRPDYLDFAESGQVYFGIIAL

IL-15Rα, sequence (Q13261 31-95 limits assumed): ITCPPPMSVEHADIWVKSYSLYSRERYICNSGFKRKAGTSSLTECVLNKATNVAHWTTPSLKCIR

Substance: IL-15: recombinant human wild-type IL-15
- WBC counts, spleen weight and blood NK and CD8+ T cell populations (NK cells and CD8 T-cells; Example 17, single i.v. dose at molar equivalent of IL-15 1 mg/kg, day 4): little or no effect
- expansion of NK and CD8+ T cells in blood and spleen (NK cells and CD8 T-cells; Example 22, single i.v. dose, complex 1 mg/kg or IL-15 wt 0.28 mg/kg, four days): no significant effect
- EG7-OVA tumor growth vs PBS (murine EG7-OVA lymphoma): significantly inhibited
- effect on s.c. A375 tumor xenografts [1]: no effect
- Kd (IL-15Rα; in solution, Bouchaud et al. 2008, read-out: Kd of complex of soluble IL-15RαSu and IL-15): 0.1 nM
- Kd (IL-15Rα; read-out: Equilibrium dissociation constant (KD) of hIL-15 with hIL-15Rα): ~0.01 nM
- Kd (IL-15Rα; read-out: affinity of IL-15Rα for hIL-15): 0.038 nM
- reduction in BM myeloma cells compared to PBS controls (5T33P myeloma cells): 53%

Substance: Mutant 6: human IL-15 variant, N72D
- increase of IL-15 biological activity by the substitution (32Dβ cells [2]): 5 to 10 fold

Substance: c264scTCR/huIL15: c264scTCR fused to the N-terminus of hIL-15
- EC50 (32Dβ cells [3]): ~0.3 nM
- effect on s.c. A375 tumor xenografts [1]: no effect

Substance: c264scTCR/huIL15D8A+c264scTCR/huIL15Rα Sushi complex: dimeric fusion protein complex with IL-15 D8A variant
- binding to the IL-15Rβγc receptors present on the 32Dβ cells (IL-15Rβγc receptors): do not show binding activity
- specific staining of p53 peptide-loaded T2 cells (p53 (aa264-272)/HLA-A2.1): equivalent activity

Substance: c264scTCR/huIL15D8N+c264scTCR/huIL15RαSushi complex: dimeric fusion protein complex with IL-15 D8N variant
- binding to the IL-15Rβγc receptors present on the 32Dβ cells (IL-15Rβγc receptors): do not show binding activity
- specific staining of p53 peptide-loaded T2 cells (p53 (aa264-272)/HLA-A2.1): equivalent activity

Substance: c264scTCR/huIgG1: p53 (aa 264-272) single-chain TCR fused to human IgG1
- A375 tumor growth ([1]; Example 10, i.v. 1.6 mg/kg T2 or c264scTCR/huIL2, 3 mg/kg 264scTCR/huIgG1): inhibited

Substance: etanercept
- potency at inhibiting TNF-α activity relative to monomeric sTNFR (TNF-α): up to 1,000 times
- serum half-life relative to the monomeric form (TNF-α): five-fold longer serum half-life
